Like-named read-outs stand apart in the source and are kept apart here.
Test system: factor VIII
Settings: ambient temperature, vs zero-time value
Experimental: Conditioned mediums (containing human serum albumin) from four harvests being different from the previous Examples were clarified and buffered with NH4 Ac. Each resulting solution, with a pH of 6.8, was loaded onto a column containing SP SEPHAROSE® FF. This cation-exchange chromatography step was performed at about 8° C. After washing, factor VIII was eluted with a salt buffer containing 0.8M NaCl and 0.1M NH4 Ac. The washing liquid as well as the elution liquid contained 3 mM EDTA. Tests without EDTA present were carried out for comparison. The procoagulant activity of factor VIII was determined by use of a chromogenic substrate method, COATEST® Factor VIII kit (Chromogenix AB of Sweden) after storage at ambient temperature for up to 24 hours. The relative standard deviation (RSD) of the method is 7%.

SMILES: O=C(O)CN(CCN(CC(=O)O)CC(=O)O)CC(=O)O [EDTA, ethylenediamine tetraacetic acid]
- Factor VIII activity (%) In preparation with 3 mM EDTA (harvest solution 1, S-eluate storage 0 h): 100%
- Factor VIII activity (%) In preparation with 3 mM EDTA (harvest solution 1, S-eluate storage 6 h): 98%
- Factor VIII activity (%) In preparation with 3 mM EDTA (harvest solution 1, S-eluate storage 24 h): 100%
- Factor VIII activity (%) In preparation with 3 mM EDTA (harvest solution 2, S-eluate storage 0 h): 100%
- Factor VIII activity (%) In preparation with 3 mM EDTA (harvest solution 2, S-eluate storage 6 h): 101%
- Factor VIII activity (%) In preparation with 3 mM EDTA (harvest solution 2, S-eluate storage 24 h): 98%
- Factor VIII activity (%) In preparation with 3 mM EDTA (harvest solution 3, S-eluate storage 0 h): 100%
- Factor VIII activity (%) In preparation with 3 mM EDTA (harvest solution 3, S-eluate storage 6 h): 109%
- Factor VIII activity (%) In preparation with 3 mM EDTA (harvest solution 3, S-eluate storage 24 h): 109%
- Factor VIII activity (%) In preparation with 3 mM EDTA (harvest solution 4, S-eluate storage 0 h): 100%
- Factor VIII activity (%) In preparation with 3 mM EDTA (harvest solution 4, S-eluate storage 6 h): 103%
- Factor VIII activity (%) In preparation with 3 mM EDTA (harvest solution 4, S-eluate storage 24 h): 102%

Source: US5831026A, “Process for purifying factor VIII” (Pharmacia & Upjohn AB, priority 1994, dated 1998)
